Data reported in PubChem BioAssay (NCI).
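Interpolation was linear, between the two tested concentrations surrounding the appropriate level; five concentrations were tested over 48 hours in 96-well plates. GI50 marks 50% less growth. Definition used: TGI = concentration required for complete inhibition of growth.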

Assays:
Assay in all cases: NCI-60 cell line screen, 48 h
A498 renal = system: A498 renal
HOP-92 NSCLC = system: HOP-92 NSCLC
IGROV1 ovarian = system: IGROV1 ovarian
K-562 leukemia = system: K-562 leukemia
OVCAR-4 ovarian = system: OVCAR-4 ovarian
SF-539 CNS = system: SF-539 CNS
SK-MEL-28 melanoma = system: SK-MEL-28 melanoma
SK-MEL-5 melanoma = system: SK-MEL-5 melanoma
SN12C renal = system: SN12C renal
UO-31 renal = system: UO-31 renal

Compound | GI50 (A498 renal) | TGI (A498 renal) | GI50 (HOP-92 NSCLC) | TGI (HOP-92 NSCLC) | GI50 (IGROV1 ovarian) | TGI (IGROV1 ovarian) | GI50 (K-562 leukemia) | TGI (K-562 leukemia) | GI50 (OVCAR-4 ovarian) | TGI (OVCAR-4 ovarian) | GI50 (SF-539 CNS) | TGI (SF-539 CNS) | GI50 (SK-MEL-28 melanoma) | TGI (SK-MEL-28 melanoma) | GI50 (SK-MEL-5 melanoma) | TGI (SK-MEL-5 melanoma) | GI50 (SN12C renal) | TGI (SN12C renal) | GI50 (UO-31 renal) | TGI (UO-31 renal)
COc1ccc(-c2c3c(N)nc(-c4ccncc4)nc3nc3c2c(C)nn3-c2ccccc2)cc1 | 12.3 µM | > 100 µM | 36.2 µM | > 100 µM | 59.3 µM | > 100 µM | 3.13 µM | > 100 µM | 3.41 µM | 30.8 µM | 1.93 µM | 4.97 µM | 4.25 µM | 40.5 µM | 6.79 µM | > 100 µM | 44.4 µM | > 100 µM | 50.7 µM | > 100 µM
O=C1/C(=C\c2c[nH]c3ccccc23)c2ccccc2N1c1c(Cl)cccc1Cl | 3.09 µM | 4.86 µM | 2 µM | 3.54 µM | 1.19 µM | 3.18 µM | 2.28 µM | 5.4 µM | 2.33 µM | 6.44 µM | 1.59 µM | 3.01 µM | 2.14 µM | 3.8 µM | 1.55 µM | 2.92 µM | 1.53 µM | 2.89 µM | 1.4 µM | 3.23 µM
C1C[OH+]CC[OH+]CCNCC[OH+]CC[OH+]CCN1.N.[Cl-].[Pt+4] | 21.3 µM | 55.1 µM | 16.1 µM | 58.3 µM | 4.55 µM | 34.7 µM | 12.7 µM | > 100 µM | 2.84 µM | 11.6 µM | 3.95 µM | 19.6 µM | 11.1 µM | 35.7 µM | 10.3 µM | 25.3 µM | 18.7 µM | > 100 µM | 12.2 µM | 32 µM
NNC(=O)/C(=C/c1ccc(Cl)cc1Cl)NC(=O)c1ccccc1 |  | > 100 µM |  | > 100 µM |  | > 100 µM |  | > 100 µM |  | > 100 µM |  | > 100 µM |  | > 100 µM |  | > 100 µM |  | > 100 µM |  | > 100 µM
O=C1c2cccnc2C(=O)c2nc3cc(N4CCN(C5CC5)CC4)ccc3nc21 | 1.34 µM | 2.91 µM | 2.93 µM | 9.95 µM | 0.808 µM | 3.01 µM | 0.522 µM | > 20.7 µM | 1.27 µM | 2.55 µM | 0.442 µM | 1.66 µM | 0.567 µM | 1.98 µM | 0.252 µM | 0.686 µM | 0.519 µM | 1.88 µM | 0.259 µM | 1.92 µM
NCCOCCOCCNc1nc(Cc2ccccc2)nc(NCCCN2CCCC2=O)n1 | > 100 µM | > 100 µM | > 100 µM | > 100 µM | > 100 µM | > 100 µM | > 100 µM | > 100 µM | > 100 µM | > 100 µM | > 100 µM | > 100 µM | > 100 µM | > 100 µM | > 100 µM | > 100 µM | > 100 µM | > 100 µM | > 100 µM | > 100 µM
CC1(C)CC(=O)c2c(C(F)(F)F)nn(-c3ccc(C(N)=O)c(NC4CCC(OC(=O)CN)CC4)c3)c2C1 (stereo not drawn) | 0.303 µM | > 100 µM | 0.124 µM | 1.04 µM | 0.0422 µM | > 39.2 µM | 0.036 µM | > 79.4 µM | > 25.1 µM | > 100 µM | 0.364 µM | 20.8 µM | 0.0522 µM | 20.6 µM | 0.0742 µM | 18.3 µM | 0.0692 µM | > 100 µM | 0.418 µM | > 27.1 µM
C/C(=N\NS(=O)(=O)c1ccccc1)c1ccc(Cl)c(Cl)c1 |  | > 100 µM |  | > 100 µM |  | > 100 µM |  | > 100 µM |  | > 100 µM |  | > 100 µM |  | > 100 µM |  | > 100 µM |  | > 100 µM |  | > 100 µM
O=C(N/C(=C\c1ccc2c(c1)OCO2)c1nc2ccccc2[nH]1)c1ccccc1 |  | > 93.8 µM |  | 58.7 µM |  | 77.3 µM |  | > 79.6 µM |  | 69.4 µM |  | 82.7 µM |  | 52.1 µM |  | 29.9 µM |  | > 84.1 µM |  | 99.8 µM
COc1cccc(-n2ncc3c(N/N=C/c4ccc(C(=O)NCCN(C)C)cc4)ncnc32)c1 | > 13.6 µM | > 25 µM | > 25 µM | > 25 µM | 1.58 µM | 6.16 µM | 0.128 µM | 6.65 µM | 3.16 µM | 7.56 µM | 3.78 µM | 7.79 µM | 3.5 µM | 7.28 µM | 2.95 µM | 6.09 µM | 3.01 µM | 6.99 µM | 1.64 µM | 5.88 µM
COc1ccc(-c2nn3c(-c4cc(F)c(Cl)cc4Cl)nnc3s2)cc1 | 43.4 µM | > 100 µM | 24.2 µM | 77.9 µM |  |  | 5.13 µM | 44.7 µM | 23.5 µM | 87.4 µM | 20.8 µM | 44.4 µM | 25.8 µM | > 100 µM | 17.6 µM | 44.7 µM | 43.4 µM | > 100 µM | 18.3 µM | > 100 µM
